Measurements as given in US20070117770A1, “Human ribosomal DNA (rDNA) and ribosomal RNA (rRNA) nucleic acids and uses thereof” (Cylene Pharmaceuticals, Inc., priority 2005, published 2007).
Entries after “also recorded” stand apart in the source; their conditions may differ.

Legend:
[1] = tested on: 28S rRNA and 18S rRNA (total RNA from HCT116 cells); experiment: Human rRNA interaction screening assay (agarose gel electrophoresis mobility shift); format: binding; conditions: 1 ug total RNA; 10 uM compound or 0.5 ug/mL PI, 15 min, room temperature
Protocol: RNA was isolated from HCT116 cells (RNeasy kit, QIAGEN) and contacted in vitro with each compound from a library of compounds. In representative assays, 1 ug of total RNA from HCT116 cells was incubated with 0.5 ug/mL of propidium iodide (PI), 10 uM compound A-1 or another compound in the library in a volume of 10 uL for 15 min at room temperature, followed by agarose gel electrophoresis. Fluorescence of the compounds was visualized on each gel. […] Compounds C-1, C-2, C-3, C-4 and C-5 have the following general formula: [drawing 15] [drawing 16]

nucleolin/1196NT = biological target: T1, nucleolin/1196NT (Homo sapiens, UniProt P19338); experiment: EMSA, interference with nucleolin/nucleic acid ligand interaction; format: binding; parameters: key to Activity of Compound A-1 (relative interference), ligand 1196NT: +: least interference by compound A-1; ++++: greatest interference by compound A-1
T1 construct: without the N-terminal acidic stretches domain
Protocol: (§1) The following assays assessed effects of compounds on interactions between nucleolin and nucleic acid ligands capable of forming quadruplex (QP) and hairpin (HP) secondary structures. Nucleic acid ligands tested were a cMyc QP DNA having nucleotide sequence 5′-[…]-3′ (SEQ ID NO: 176) and a HP pre-rRNA region to which nucleolin binds, having the sequence 5′-[…]-3′ (SEQ ID NO: 177). In the assays, recombinant nucleolin (˜250 nM), which was fused to maltose binding protein and had the sequence under accession number NM_005381 without the N-terminal acidic stretches domain, was incubated with each of the two ^32P-labeled nucleic acid ligands (10 or 250 nM). Nucleolin and the nucleic acid ligand were incubated in the presence or absence of a test compound of Formula A-1, B-1, C-6 or C-7 in an incubation buffer (12.5 mM Tris, pH 7.6, 60 mM KCl, 1 mM MgCl2, 0.1 mM EDTA, 1 mM DTT, 5% glycerol, 0.1 mg/ml BSA) for 30 minutes at room temperature. Structures for A-1 and B-1 are shown above and structures for C-6 and C-7 are shown hereafter: [drawing 17] […]
(§2) The assay also was conducted in a filter-binding format. […] Radioactivity was assayed with MicroBeta scintillation counter (Perkin Elmer). Binding curves were constructed and apparent Kd's and Bmax's for the complexes were calculated using the GraphPad Prizm software program (GraphPad Software). […]

nucleolin/8749NT = biological target: T2, nucleolin/8749NT (Homo sapiens, UniProt P19338); experiment: as above; format: binding; parameters: key to Activity of Compound A-1 (relative interference), ligand 8749NT: +: least interference by compound A-1; ++++: greatest interference by compound A-1
T2 construct: without the N-terminal acidic stretches domain
Protocol: as §1, §2

[2] = tested on: fibrillarin in A549 cells; experiment: Cell fibrillarin localization (immunofluorescence); format: cell-based; conditions: protocol as for nucleolin
Protocol: (§3) An assay was conducted to determine the effect of ribosomal nucleic acid interacting compounds on cell nucleolin location. In these studies, A549 cells were plated in borosilicate chamber slides. The cells were treated with 10 uM compound A-1 the next day for two hours, washed with phosphate buffered saline, fixed for 10 minutes in 4% paraformaldehyde, permeabilized for 5 minutes in a 1:1 ethanol:acetone mix, incubated with a 1:100 dilution of an anti-nucleolin monoclonal antibody (catalog no. RDI-NUCLEOLabm; Research Diagnostics, Inc.) in 5% donkey serum, followed by incubation with a 1:100 diluted TRITC-labeled secondary anti-mouse antibody and observed under a fluorescence microscope (e.g., Olympus) in the TRITC channel at 600× magnification. […] Accordingly, nucleolin was redistributed from the nucleolus to the nucleoplasm in cells treated with a compound tested in the assay.
Another assay was conducted to determine the effect of ribosomal nucleic acid interacting compounds on cell fibrillarin location. These studies were conducted using a protocol similar to that described in the preceding paragraph, except an antibody that specifically bound to fibrillarin (catalog no. ab5821; Novus Biologicals, Inc.) was utilized.

nucleolin in A549 cells = experiment: Cell nucleolin localization (immunofluorescence); format: cell-based; conditions: 10 uM, two hours
Protocol: as §3

nucleolin/6183NT = biological target: T3, nucleolin/6183NT (Homo sapiens, UniProt P19338); experiment: EMSA, interference with nucleolin/nucleic acid ligand interaction; format: binding; parameters: key to Activity of Compound A-1 (relative interference), ligand 6183NT: +: least interference by compound A-1; ++++: greatest interference by compound A-1
T3 construct: without the N-terminal acidic stretches domain
Protocol: as §1, §2

other kinases = experiment: Protein kinase inhibition assays (panel, summary); format: biochemical; conditions: 2.5 μM
Protocol: Certain compounds were tested for activity in protein kinase inhibition assays. All substrates were dissolved and diluted to working stocks in de-ionized water, apart from histone H1 (10× working stock in 20 mM MOPS pH 7.0), PDKtide (10× working stock in 50 mM Tris pH 7.0) ATF2 (which is typically stored at a 20× working stock in 50 mM Tris pH 7.5, 150 mM NaCl, 0.1 mM EGTA, 0.03% Brij-35, 50% glycerol, 1 mM benzamidine, 0.2 mM PMSF and 0.1% R-mercaptoethanol), KKLNRTLSFAEPG (SEQ ID NO:203) and RRRLSFAEPG (SEQ ID NO:204) (50 mM HEPES pH 7.4) and GGEEEEYFELVKKKK (SEQ ID NO:205) (20 mM MOPS pH 7.0). All kinases were pre-diluted to a 10× working concentration prior to addition into the assay. The composition of the dilution buffer for each kinase is detailed below.
The following table denotes percent residual activity of each protein kinase when incubated with compound A-1 or B-1.

T2 sequence (P19338 284-710 limits assumed): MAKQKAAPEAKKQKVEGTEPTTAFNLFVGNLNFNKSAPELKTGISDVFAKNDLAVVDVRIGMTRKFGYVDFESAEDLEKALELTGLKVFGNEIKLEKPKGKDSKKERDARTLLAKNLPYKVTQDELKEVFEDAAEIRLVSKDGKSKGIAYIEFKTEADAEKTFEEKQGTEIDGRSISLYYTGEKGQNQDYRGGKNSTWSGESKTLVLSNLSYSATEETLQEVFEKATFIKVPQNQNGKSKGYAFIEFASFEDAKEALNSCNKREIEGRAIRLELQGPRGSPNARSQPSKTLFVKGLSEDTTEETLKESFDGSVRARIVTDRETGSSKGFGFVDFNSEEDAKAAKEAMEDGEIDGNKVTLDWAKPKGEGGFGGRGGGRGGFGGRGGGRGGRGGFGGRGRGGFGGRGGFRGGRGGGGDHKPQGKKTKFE
T3 sequence (P19338 284-710 limits assumed): as above
T1 sequence (P19338 284-710 limits assumed): as above

CN1CCCC1CCNC(=O)c1cn2c3c(c(N4CCC(c5cnccn5)C4)c(F)cc3c1=O)Oc1cc3ccccc3cc1-2 (stereo not shown) [Compound A-1]
binding to 28S versus 18S rRNA [1]: bound preferentially to 28S rRNA; also recorded: selective binding to 28S over 18S
Activity of Compound A-1 (relative interference), ligand 1196NT (nucleolin/1196NT): +
IC50 (nucleolin/1196NT; ligand 1196NT, read-out: IC50, concentration of Compound A-1 required to dissociate half of the complexed nucleic acid ligand and nucleolin protein): 3 µM
Activity of Compound A-1 (relative interference), ligand 8749NT (nucleolin/8749NT): +
IC50 (nucleolin/8749NT; ligand 8749NT, read-out: IC50, concentration of Compound A-1 required to dissociate half of the complexed nucleic acid ligand and nucleolin protein): 10 µM
fibrillarin localization in treated cells [2]: caused redistribution of fibrillarin
nucleolin localization in treated cells (nucleolin in A549 cells): nucleolin was redistributed to the nucleoplasm
Activity of Compound A-1 (relative interference), ligand 6183NT (nucleolin/6183NT): +
IC50 (nucleolin/6183NT; ligand 6183NT, read-out: IC50, concentration of Compound A-1 required to dissociate half of the complexed nucleic acid ligand and nucleolin protein): 3 µM
inhibition of other kinases (other kinases): 60-80%
